Tests used:
proteosome pathway = assay: Proteasome inhibition in CHO cells stably expressing recombinant Insl6, Western blot with anti-Insl6 antibody; format: cell-based, chinese hamster; conditions: 5 μM, cells harvested after 4 h or 24 h, FIG. 5D
Description: (§1) Based on the magnitude of difference in molecular weights between the two species (31-32 vs. 40 kDa), it was investigated whether Insl6 is ubiquinated. […] In contrast, the absence of the larger bands in a transcription/translation reaction using wheat germ extracts (FIG. 5C) supports the possibility that the Insl6 protein is ubiquinated. […] Briefly CHO cells stably expressing Insl6 were either exposed to vehicle (−) or 5 μM Clasto-Lactacystin-β-lactone (Clasto-L) (+) and cells harvested after 4 h (lanes A & B) or 24 h (lanes C & D). The cell lysates were Western blotted with anti-Insl6 antibody. To address te possibility that over-expression of Insl6 in the CHO cells may have facilitated aberrant ubiquination, the effect of inhibition of the proteasome pathway in a coupled in vitro transcriptiontranslation was investigated. The data obtained support the in vivo data showing that inhibition of the proteasome pathway results in decelerated rate of degradation of the Insl6 (FIG. 5E). Briefly, coupled in vitro transcription/translation of Insl6 using reticulocyte lysates performed in the presence of [^35S]

proteasome pathway = assay: Coupled in vitro transcription/translation of Insl6 using reticulocyte lysates with proteasome inhibition; format: biochemical; conditions: 5 μM, [35S] L-cysteine, FIG. 5E
Description: as §1

PKG = target: T1, PKG (Homo sapiens, UniProt Q13976); conditions: no effect on PKG; cited from earlier work
T1 sequence (Q13976 1-671): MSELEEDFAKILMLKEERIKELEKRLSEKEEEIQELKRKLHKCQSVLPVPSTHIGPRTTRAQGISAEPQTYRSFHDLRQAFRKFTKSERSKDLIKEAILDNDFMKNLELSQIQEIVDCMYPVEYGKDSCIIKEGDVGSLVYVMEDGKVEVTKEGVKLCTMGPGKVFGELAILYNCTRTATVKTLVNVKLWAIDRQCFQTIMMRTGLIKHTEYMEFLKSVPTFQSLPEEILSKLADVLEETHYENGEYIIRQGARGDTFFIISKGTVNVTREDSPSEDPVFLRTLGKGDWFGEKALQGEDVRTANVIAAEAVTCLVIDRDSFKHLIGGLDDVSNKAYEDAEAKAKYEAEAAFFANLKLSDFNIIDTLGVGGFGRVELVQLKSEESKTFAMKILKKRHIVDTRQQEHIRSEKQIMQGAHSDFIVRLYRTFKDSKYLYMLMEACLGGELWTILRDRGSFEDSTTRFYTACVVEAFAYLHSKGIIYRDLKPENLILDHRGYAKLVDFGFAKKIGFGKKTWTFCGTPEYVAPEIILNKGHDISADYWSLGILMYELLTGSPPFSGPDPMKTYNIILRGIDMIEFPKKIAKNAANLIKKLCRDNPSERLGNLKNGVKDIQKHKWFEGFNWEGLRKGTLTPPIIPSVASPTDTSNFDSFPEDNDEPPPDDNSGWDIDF

PKA = PKA (Homo sapiens, UniProt P17612); conditions: vendor Tocris; cited from earlier work
PKC = conditions: no effect on PKC; cited from earlier work
[1] = tested on: MSC-1 (mouse Sertoli cell line) cells; assay: Tyrosine phosphorylation of MSC-1 cellular proteins, anti-phosphotyrosine Western blot; format: cell-based; conditions: serum-deprived cells, ten minutes, serum-free conditioned medium from CHO cells expressing Insl6 vs non-transfected CHO; FIG. 11A
From the text: The effect of Insl6 on Sertoli cells was confirmed by exposing serum-deprived MSC-1 (mouse Sertoli cell line) cells to serum-free conditioned medium containing recombinant Insl6 secreted by the CHO cells stably expressing epitope-tagged Ins16. The effect of Insl6 on the phosphorylation status of MSC-1 cellular proteins was initially investigated. […] Serum-deprived MSC-1 cells were exposed for ten minutes to serum-free conditioned medium from either CHO cells expressing Insl6 (lane A, FIG. 11A) or from non-transfected CHO cells (lane B, FIG. 11A). Cell lysates were subjected to reducing SDS-PAGE and blotted with antiphphosphotyrosine antibodies. The specific protein bands showing increased phosphorylation in response to Insl6 are indicated by the diamond and star symbols respectively.
(§2) Western Blot Analysis—Western blot analyses were carried out by established protocols known by those skilled in art. […] Equality of loading and efficiency of transfer were assessed by Ponceau staining of the nitrocellulose filters and protein concentration determined by Bradford's method (BioRad). […]

[2] = tested on: rat primary Sertoli cells; assay: Tyrosine phosphorylation profile of rat primary Sertoli cell proteins by Western blotting; format: cell-based; conditions: serum-deprived rat primary Sertoli cells, recombinant Insl6 in serum-free milieu
From the text: Although Sertoli cell lines are useful tools for investigating Sertoli cell function, they are important differences between primary Sertoli cells and established Sertoli cell lines. For example, compared to primary Sertoli cells, MSC-1 cells are relatively deficient in the FSH receptor. […] For this purpose, we exposed serum-deprived rat primary Sertoli cells to recombinant Insl6 in a serum-free milieu and determined the tyrosine phosphorylation profile of cellular proteins by Western blotting. […] Based on the premise that Insl6 belongs to the insulin family of proteins, the following canonical signaling pathways involving Insl6 action on Sertoli cells were investigated:
Isolation and culture of primary rat Sertoli cells—Rat Sertoli cells were isolated in our laboratory using a standardized protocol. […] The purity of the Sertoli cell isolate yielded by this protocol is >95% as determined by phase microscopy and alkaline phosphatase staining.
as §2

MSC-1 cells = assay: Proliferation of MSC-1 cells, colorimetric viable cell assay; format: cell-based, mouse; conditions: serum-deprived cells, varying time periods, conditioned medium from CHO cells expressing Insl6 vs non-transfected CHO; FIG. 12
Description: To further investigate the significance of alteration in the tyrosine phosphorylation status of MSC-1 proteins, the effects of Insl6 on proliferation of MSC-1 were tested. For these experiments serum-deprived MSC-1 cells were exposed for varying time periods to serum-free conditioned medium from either CHO cells expressing Insl6 or from non-transfected CHO cells and the number of viable cells determined by a colorimetic assay (celltiter 96 Aqueous One Solution Cell Proliferation Assay; Promega, Madison, Wis., USA).

In the case of `CC(C)[C@H](O)[C@@]12NC(=O)[C@H](C)[C@@H]1OC2=O` [Clasto-Lactacystin-β-lactone], the “effect on half-life of Insl6” value (proteosome pathway) is reported as “prolongation of the half-life of Insl6” and the “effect on rate of degradation of Insl6” value (proteasome pathway) is reported as “decelerated rate of degradation of Insl6”.

For `CCCCCCOC(=O)[C@]1(O)C[C@@H]2O[C@@]1(C)n1c3ccccc3c3c4c(c5c6ccccc6n2c5c31)C(=O)NC4` [KT 5720], the Ki (PKG) is given as greater than 2000 nM, the Ki (PKA) is given as 60 nM and the Ki (PKC) is given as greater than 2000 nM.

B1: Insl6: recombinant His-myc epitope-tagged murine Insl6, insulin family protein, secreted by stably expressing CHO cells (protein)
chain: EEESRPRKLCGRHLLIEVIKLCGQSDWSRFEMEEQSPMTQFFPHYSRKGKAFNPHPSSSAWRRFTNPVPAGVSQKKGTHTWEPQSLPDYQFEKTELLPKARVFSYHSGKPYVKSVQLQKKSTNKMNTFRSLFWGNHSQRKRRGFADKCCVIGCTKEEMAVACLPFVDF
modifications: left off: small tags and cut ends
In the case of B1, the “effect on tyrosine phosphorylation of cellular proteins” value [1] is reported as “specific tyrosine phosphorylation of proteins of molecular weights of approximately 55 and 40 kDa”, the “effect on tyrosine phosphorylation of cellular proteins” value [2] is reported as “alters the tyrosine phosphorylation status of cellular proteins” and the effect on proliferation (MSC-1 cells) is reported as “significantly inhibits the proliferation of MSC-1 in a time-dependent manner”.
